The values that follow come from US20100203110A1, “Therapeutics for Cancer Using 3-Bromopyruvate and Other Selective Inhibitors of ATP Production” (The Johns Hopkins University, priority 2006, published 2010).

The subject of test [1] is HepG2. Description: Caspase-3 activity, HepG2. Type of test: cell-based, human. As to conditions: 1 mM for 3 hour. The protocol:
Caspase-3 activity and reduced cell viability was also measured in cell lines (HepG2, THLE-2, and VX2 cell lines) following 3-bromopyruvate treatment (1 mM for 3 hour) (FIG. 6A). Caspase-3 activity increased in each cell line following treatment and cell viability decreased following treatment. An increase in caspase-3 activity indicated the mechanism of cell death is apoptotic. FIGS. 6 B and C show cell viability is reduced in each cell line with increasing 3-bromopyruvate concentration after 1 and 3 hours of treatment.

Test [2] in a line: Survival analysis, treatment versus control group (Kaplan-Meier). Type of test: in vivo, rabbit. The note with it: 11 animals, control 18.6 days. The source says: FIG. 9 is a graph showing survival of untreated (control) versus 3-bromopyruvate treated animals.
The control group consisted of 10 animals and the treatment group consisted of 11 animals. The Kaplan-Meier method was used to estimate survival curves. […] The mean survival time in the control group is 18.6 days as compared to the treatment group, with 50.0 days.

In test [3] the test system is VX2 tumor glycolysis. Description: Glycolytic activity (lactic acid formation) of VX2 tumor slices. It counts as cell-based, rabbit. The protocol:
Glycolysis was assayed by monitoring the formation of lactic acid following the addition of glucose to a medium containing VX2 tumor slices. Specifically, freshly excised tumors were washed 3 times at 4° C. in 20 ml Chance Hess Medium containing 6.2 mM KCl, 154 mM NaCl, and 11 mM NaPi, pH 7.4. Slices, 1 g each, were then prior incubated for 30 min in a Lab-Line incubator-shaker at 37° C. in 2 ml of the same medium while shaking at 50 rpm. Glucose was then added to give a final concentration of 6 mM, after which the incubation/shaking process was continued with 0.2 ml samples being removed every 30 min for up to 2 h. These samples were subjected to centrifugation at 14,000 rpm in an Eppendorf Centrifuge (Model 5415C). Then, aliquots of the supernatant, 0.01 ml, were removed from each sample, diluted with 0.03 ml of water and subjected to lactic acid determination using the kit supplied by Sigma. The latter contains, in addition to lactic dehydrogenase and NAD+, hydrazine, and glycine buffer, pH 9.2. The mixture was incubated for 30 min at 25° C. after which the absorbance due to formation of NADH was determined at 340 nm using a Gilford Model 260 spectrophotometer. To assess the elevation of the glycolytic activity of the VX2 tumor over that of liver tissue, parallel studies were always carried out in an identical manner with 1 g liver slices derived from the host liver. Finally, in those cases where agents were tested for their capacity to inhibit glycolysis, these were introduced into the system at the prior incubation step with all subsequent steps being run in parallel with those described above for the VX2 tumor or liver alone.
The screen included the following 9 compounds: 2-deoxyglucose (2DOG), 2-fluoro-2-deoxyglucose, 6-fluoro-6-deoxyglucose, 3-O-methyl glucose, 5-thio-D-glucose-6-phosphate, L-glucose, D-xylose, D-lyxose, and 3-bromopyruvic acid (3BrPA). The screen was conducted by incubating VX2 tumor slices in a medium containing 6 mM glucose with 6 mM of each of these agents at 37° C. for 5 h. The use of 6 mM glucose in the medium was used to mimic the maximal amount of glucose that might be in the blood in a real in vivo situation.
To compare the inhibitory effects of 2DOG and 3BrPA on the glycolytic capacity of the isolated liver implanted VX2 tumor, various concentrations of 2DOG and 3BrPA were prior incubated for 30 min at 37° C. with 1 g VX2 tumor slices and glycolysis was monitored.

For test [4], the system named is back adipose tissue (BAT). The experiment in a line: FDG uptake after IP injection in non-tumor bearing rats. It counts as in vivo, rat. The text has this:
(§1) After having established the anti-glycolytic effect of 3-bromopyruvate in vitro, we designed a series of experiments to confirm this property in vivo. For this purpose, two different animal models, the Lewis rat mammary tumor model and the orthotopic VX2 rabbit liver cancer model were used. Since glucose uptake can be monitored using fluorine-labeled deoxyglucose (FDG), potential sites of decreased FDG uptake as a result of 3-bromopyruvate activity could be identified. The effects of intraperitonealy (IP) injected 3-bromopyruvate in non-tumor bearing rats were compared to those in tumor bearing rats. The tumors were derived from the rat mammary tumor (RMT) cell line and transplanted into the back adipose tissue of the rat and allowed to grow for 10 days. After having determined the maximum tolerated dose, all animals received two bolus doses (one hour apart) of 3-bromopyruvate injected IP. The FDG was injected 30 minutes after the first injection of 3-bromopyruvate and all animals were sacrificed 60 minutes after the FDG was injected. The tumors and all major organs were removed, weighed and analyzed in a gamma counter. […]

Test [5] relates to rat mammary tumor (RMT). Description: FDG uptake after IP injection in tumor bearing rats. It counts as in vivo.
Text: as §1

[6] abbreviates: two IP bolus doses one hour apart.

Turning to `O=C(O)C(=O)CBr` [3-bromopyruvate], the Caspase-3 activity result in test [1] is “increased”. The compound further came in with a mean survival time in test [2] of 50.0 days. Further, the “inhibition of VX2 tumor glycolysis (screen)” value in test [3] (6 mM agent, 6 mM glucose, VX2 tumor slices, 37° C., 5 h) was “almost completely inhibited”. In addition, the “concentration for maximal / complete inhibition of glycolysis” value in test [3] (VX2 tumor slices, 2DOG maximal (70%), 3BrPA complete) is recorded as “about 15 mM”. Also, in test [3] (prior incubated 30 min at 37° C. with 1 g VX2 tumor slices, read-out: half maximal inhibition of glycolysis), the IC50 amounted to 2400 µM. In test [4] (two IP bolus doses), the “FDG uptake in other organs” value is listed as “affected no other organs”. Moreover, the “decrease in FDG uptake (percentage of injected dose per gram of tissue) in back adipose tissue” value in test [4] (setting [6]) turned out to be 10 fold. The “FDG uptake in all other organs” value in test [5] (two IP bolus doses) is listed as “unaffected”. In addition, in test [5] (setting [6]), the “decrease in FDG uptake in the tumor” value was found to be 50%.
